Ends that are not written are not given here.
What was measured:
[1] = target: T1, recombinant mouse macrophage mannose receptor rmMMR/CD206 (Mus musculus, UniProt Q61830); experiment: Fluorescence anisotropy assay with mouse recombinant CD206; assay type: binding; details: 50 nM FAM peptide, 1 μM protein, 25 °C
T1 construct: purchased R&D Systems 2535-MM-050
T1 sequence (Q61830 20-1456): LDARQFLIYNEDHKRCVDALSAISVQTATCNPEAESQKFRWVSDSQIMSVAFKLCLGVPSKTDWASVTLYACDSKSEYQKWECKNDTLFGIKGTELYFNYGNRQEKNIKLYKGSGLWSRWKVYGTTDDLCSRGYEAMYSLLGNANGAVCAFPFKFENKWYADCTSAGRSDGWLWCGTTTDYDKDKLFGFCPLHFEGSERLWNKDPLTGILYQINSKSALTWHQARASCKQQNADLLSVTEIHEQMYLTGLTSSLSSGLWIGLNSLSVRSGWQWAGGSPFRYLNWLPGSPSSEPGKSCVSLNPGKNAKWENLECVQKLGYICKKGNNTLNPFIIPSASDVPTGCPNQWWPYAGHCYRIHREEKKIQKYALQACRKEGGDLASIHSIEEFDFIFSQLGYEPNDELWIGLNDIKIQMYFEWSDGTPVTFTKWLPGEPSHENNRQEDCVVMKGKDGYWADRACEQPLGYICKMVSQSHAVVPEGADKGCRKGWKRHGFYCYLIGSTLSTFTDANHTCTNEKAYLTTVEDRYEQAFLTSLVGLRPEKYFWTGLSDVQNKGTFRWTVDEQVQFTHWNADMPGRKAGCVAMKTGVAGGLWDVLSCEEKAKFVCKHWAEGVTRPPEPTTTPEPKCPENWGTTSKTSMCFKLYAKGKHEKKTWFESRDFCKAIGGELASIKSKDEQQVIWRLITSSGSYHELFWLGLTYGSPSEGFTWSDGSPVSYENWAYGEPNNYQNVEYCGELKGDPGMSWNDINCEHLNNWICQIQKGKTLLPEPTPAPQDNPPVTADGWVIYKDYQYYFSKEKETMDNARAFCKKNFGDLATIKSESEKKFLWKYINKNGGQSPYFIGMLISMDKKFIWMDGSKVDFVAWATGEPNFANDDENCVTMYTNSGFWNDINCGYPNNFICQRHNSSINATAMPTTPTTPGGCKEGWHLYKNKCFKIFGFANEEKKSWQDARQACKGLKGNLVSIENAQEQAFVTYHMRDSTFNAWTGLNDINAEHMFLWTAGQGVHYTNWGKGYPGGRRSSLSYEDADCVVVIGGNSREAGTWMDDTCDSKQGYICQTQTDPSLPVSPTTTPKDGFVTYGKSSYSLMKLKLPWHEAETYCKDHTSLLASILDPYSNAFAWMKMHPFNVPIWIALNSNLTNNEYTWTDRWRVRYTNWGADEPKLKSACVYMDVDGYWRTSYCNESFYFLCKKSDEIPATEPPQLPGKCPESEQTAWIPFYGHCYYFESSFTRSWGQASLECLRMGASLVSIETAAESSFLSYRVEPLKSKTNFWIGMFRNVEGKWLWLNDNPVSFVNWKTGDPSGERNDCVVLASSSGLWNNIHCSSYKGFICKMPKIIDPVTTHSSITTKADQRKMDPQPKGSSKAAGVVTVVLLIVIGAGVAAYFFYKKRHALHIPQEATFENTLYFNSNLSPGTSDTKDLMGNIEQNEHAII
Method: The stocks of fluorescent ligands (FAM-UNO, FAM-CSPGAK and FAM-CPMTDNE) in mQ water were stored at −20° C. […], 150 mM NaCl, 1 mM CaCl2, 0.1% Pluronic F-127, pH 7.4) on the day of experiment. The concentration of fluorescent ligands was determined by absorbance of FAM (E495=75000 M^−1 cm^−1).
The recombinant mouse macrophage mannose receptor rmMMR/CD206 (R&D Systems, catalog number: 2535-MM-050) and recombinant mouse CD163 (R&D Systems, catalog number: 7435-CD-050) were reconstituted at 1 mg/ml in IB, aliquoted and stored at −20° C. To generate linearized version of cyclic FAM-UNO peptide, the peptide at 1 mM concentration was preincubated for 24 h at room temperature in a dark place with 3 mM DTT and diluted with IB 2×10^5 times before the FA assay. The control experiment with FAM-CPMTDNE peptide (FIG. 22) was performed to rule out the possibility of disulphide bond formation, which could affect the binding properties of linear peptides. Initially, the peptide was preincubated in DMSO for 4 days at room temperature to enhance the disulphide bond formation, and then diluted in IB buffer with 3 mM DTT, and the disappearance of preformed dimer was observed as a change in FA signal.
In all experiments, FA signal measurements were done under pseudo first-order conditions with 50 nM singly labelled FAM peptides and 1 μM proteins. […] Assays were carried out in kinetic mode in a total volume of 30 μl at 25° C. on the PHERAstar (BMG Labtech, Germany) microplate reader using an optical module with excitation and emission filters of 485 nm (slit 10 nm) and 520 nm (slit 10 nm), respectively. Dual emission detection mode allows simultaneous recording of intensities that are parallel (l) and perpendicular (1) to the plane of excitation light. […] The background fluorescence (receptor and buffer components in the absence of fluorescent ligand) was subtracted independently from all intensity channels. FA signals at time t after initiation of binding reaction was calculated as parameters r(t) from the equation: […]

[2] = tested on: peritoneal cells (CCR2+ macrophages) of 4T1 tumor-bearing mice; experiment: Flow cytometry of FAM-peptide binding to peritoneal cells from 4T1 tumor mice; assay type: cell-based, mouse; details: anti-CD206 10 μg/mL
Method: A, Change in fluorescence anisotropy of FAM-UNO (dotted line) and FAM-UNO in DTT (solid line) while incubating with mouse recombinant CD206. B, Change in fluorescence anisotropy of FAM-CSPGAK with mouse recombinant CD206 (solid line) or with CD163 (dotted line) and of FAM-CPMTDNE (control) with CD206 (dashed line). C, FAM-UNO binds selectively to CCR2^+ macrophages collected from the peritoneal cavity of 4T1 tumor-bearing mice, as 94.3% of FAM^+ cells are CCR2^+ cells. The analysis was done gating for the FAM^+ population (left panel). In these 4T1 tumor bearing mice, 58% of peritoneal cells are macrophages, i.e. CCR2^+ cells (right panel). D, FAM-UNO binding to peritoneal cells is inhibited by preincubating with 10 µg/mL of anti-CD206, whereas the preincubation with anti CD206 antibody had no effect on FAM-LyP-1 binding. In panels A and D are shown representative graphs from three independent experiments. In panels c and d are shown results from three independent experiments (n=3 mice) and bars of panel D represents mean+SEM.
Peritoneal cells were extracted from Balb/c mice 2 weeks after inoculation of 10^6 cells orthotopically). Mice were anesthetized and intraperitoneally injected with 5 mL of PBS+1% BSA, the abdomen was massaged to detach macrophages and the peritoneal fluid was collected. This procedure typically yielded 5-9×10^6 cells. Cells were concentrated to 1 mL in the same peritoneal fluid. For FAM-peptide incubation, the peptides were incubated for 30 minutes at 4° C. For antibody incubation the cells were incubated with antibody for 1 h at 4° C. A647 Rat anti-CCR2 (Biolegend, CA, USA. Catalog number 150603) was incubated for 1 h at 4° C. at a dilution of 1/200. FAM-peptides were incubated at a concentration of 0.5 μg/mL, and Rat anti-CD206 (Bio-Rad, CA, USA. Product code MCA2235GA) was incubated at a concentration of 10 μg/mL. Binding of FAM-peptides was monitored with 488 nm channel and CCR2 labeling was assessed in the 647 nm channel using A647 Anti-CCR2 (Biolegend, CA, USA). After incubation of FAM-Peptides or antibodies, the cells were washed 3 times at 4° C. with PBS-Tby centrifugation at 250 g for 6 minutes, followed by flow cytometry analysis (Accuri, BD Biosciences, CA, USA).

peritoneal macrophages = experiment: In vivo phage display on peritoneal cells of 4T1 tumor-bearing versus normal mice; parameters: species or system mouse; details: phage-displayed peptide, peritoneal cells of 4T1 tumor mice
Method: A, Naive phage library was injected intraperitoneally in 4T1 tumor-bearing mice and age-matched normal mice, and allowed to circulate for two h. Peritoneal cells were collected, the accompanying phages were rescued and the peptide-encoding segment of phage DNA was sequenced. […] Peritoneal cells were extracted from the mice, seeded on coverslips, allowed to attach for 2 h, fixed, permeabilized, and stained for CD206. CD206+ cells were counted from 6 different confocal images, 2 from each mouse. C, Highly repeated sequences obtained from the first round of the biopanning experiment shown schematically in panel A. D, Frequency of phage clones encoding UNO or a randomly picked peptide (CIGVSSDC) divided by the total number of repeated sequences) in the 4T1 tumor-bearing and normal mice.
Ten days later, the 4T1 mouse and a Balb/c female mouse of the matched age, were injected with 500 μL of a 7×10^10 pfu/mL of purified CX7C long-circulating library that bears a mutation on the p17 protein of tail fiber^45. After 2 h the mice were anesthetized and peritoneal cells were collected, washed by centrifugation, and lysed by hand-held homogenizer in 2 mL of LB+NP40 1%. The phage was amplified in E. coli strain BLT5403 for high throughput sequencing of peptide encoding segment of the phage genomic DNA using Ion Torrent semiconductor sequencing system.
In vivo phage display was carried out on orthotopic breast cancer bearing mice as outlined in FIG. 1A. Compared to peritoneal cells of healthy mice, […] macrophages were ˜5-fold overrepresented in Balb/c mice bearing metastatic syngeneic 4T1 breast tumors (FIG. 1B). We hypothesized that a peptide that binds to peritoneal macrophages in tumor-bearing mice may also target M2-like TAMs. Mice with 4T1 tumors were injected intraperitoneally (i.p.) with a phage library expressing 9-amino acid cyclic CX7C peptides. After 2 h, peritoneal cells were collected, bound phages were rescued by amplification, and the resulting phage pool was subjected to high-throughput sequencing of the peptide-encoding segment of the phage genome. […]

FAM-CPMTDNE: FAM-labeled control peptide CPMTDNE (SEQ ID NO: 7) (not fully specified; FAM label) [reference compound]
change in fluorescence anisotropy (interaction) with mouse recombinant CD206 [1]: did not cause significant changes in anisotropy values

FAM-LyP-1: FAM-labeled LyP-1 (CGNKRTRGC; SEQ ID NO: 4), peptide that targets cell surface p32 (not fully specified (N-terminus); cysteine pairing not given here) [reference compound]
reduction of binding to peritoneal cells by pre-incubation with anti-CD206 antibody [2]: no effect

CGEKRTRGC [phage clone previously identified together with LyP-1]
representation among sequenced phage clones (peritoneal macrophages): second most abundant phage clone overrepresented in the cancer mice
